PubChem BioAssay AID1648 (Sanford-Burnham Center for Chemical Genomics, 2009)
Activity calls are given as the source filed them. How the calls were made is not given here.

These compounds were tested against Serine/threonine-protein kinase mTOR (Homo sapiens) (UniProt P42345) (assay: mTOR FRB domain ligand binding – biophysical, NMR (AID 1648)). Details: NMR binding to FRB domain, chemical shift.
Chain of Serine/threonine-protein kinase mTOR (Homo sapiens) (P42345 2015-2114): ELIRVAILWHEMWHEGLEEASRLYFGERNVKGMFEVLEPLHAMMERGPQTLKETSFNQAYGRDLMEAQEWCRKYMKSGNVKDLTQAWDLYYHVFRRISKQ

| Compound | Kd |
| --- | --- |
| O=C(Nc1nncs1)C1(c2ccccc2)CCCC1 | > 4 mM (inactive) |
| O=C(Nc1cnccn1)c1ccncc1 | > 4 mM (inactive) |
| OC1CCN(C(=S)NC2CC2)CC1 | > 4 mM (inactive) |
| Cc1cn2c(-c3cccnc3)nnc2s1 | > 4 mM (inactive) |
| O=C(NCCO)c1cc2ccccc2c(=O)s1 | > 4 mM (inactive) |
| NC(=O)C1CCN(C(=S)Nc2ccccc2)CC1 | > 4 mM (inactive) |
| COc1c2occc2c(OC)c2c(=O)cc(C)oc12 | > 4 mM (inactive) |
| NC(=O)c1ccsc1N | > 4 mM (inactive) |
| O=CN1CCN(C(=O)c2ccccc2Cl)CC1 | > 4 mM (inactive) |
| CC1=NCCc2c1[nH]c1cc(O)ccc21 | > 4 mM (inactive) |
| CC(CCC(=O)O)[C@H]1CCC2C3C(C[C@H](O)[C@@]21C)[C@@]1(C)CC[C@@H](O)C[C@H]1C[C@H]3O (some centres undefined) | > 4 mM (inactive) |
| CCC(C)OC1CCS(=O)(=O)C1 (centres undefined) | > 4 mM (inactive) |
| COc1ccc(-c2cc(=O)c3cc(OC)ccc3o2)cc1 | > 4 mM (inactive) |
| COC1C(O)C(O)C(O)[C@@H](O)C1O (some centres undefined) | > 4 mM (inactive) |
| Cc1cc(N2CCN(C)CC2)ncn1 | > 4 mM (inactive) |
| Nc1ccncc1 | > 4 mM (inactive) |
| CC12OC(=O)CC3C(C)(C)[C@H](O)C=C[C@]3(C)C1CC[C@]1(C)C2=CC(=O)O[C@H]1c1ccoc1 (some centres undefined) | > 4 mM (inactive) |
| Cc1c(C(=O)Nc2ccccc2)sc(N)c1C(N)=O | > 4 mM (inactive) |
| O=[n+]1cc(C2=CC=CCC2)n([O-])c2c1CCCCC2 | > 4 mM (inactive) |
| Nc1c2c3c(sc2nc(=O)n1N)CCCC3 | > 4 mM (inactive) |
| CNS(=O)(=O)c1ccc2[nH]c(=O)[nH]c2c1 | > 4 mM (inactive) |
| Nc1ccc2c(c1)CCCC2=O | > 4 mM (inactive) |
| CC(=O)NC(c1ccccc1)c1cccnc1 (centres undefined) | > 4 mM (inactive) |
| COC(=O)c1c[nH]c2ccccc12 | > 4 mM (inactive) |

| Compound | Kd |
| --- | --- |
| NC1CSCC1O (centres undefined) | > 4 mM (inactive) |
| COc1ccc(/C=C2\SC(N)=NC2=O)cc1 | > 4 mM (inactive) |
| c1ccc(CCc2nc(-c3ccccn3)no2)cc1 | > 4 mM (inactive) |
| O=C1NC(=O)C(=Cc2cccs2)C(=O)N1 | > 4 mM (inactive) |
| Cc1ccc(CCC(N)=O)o1 | > 4 mM (inactive) |
| CC(=O)Nc1ccncc1NC(C)=O | > 4 mM (inactive) |
| O=C(NN1C(=O)c2ccccc2C1=O)c1cccs1 | > 4 mM (inactive) |
| Cn1c(=O)cc(N2CCCCC2)[nH]c1=O | > 4 mM (inactive) |
| Nc1ccccc1-c1nc2ccccc2[nH]1 | > 4 mM (inactive) |
| NC(=O)COc1cccc2cccnc12 | > 4 mM (inactive) |
| CNC(=S)Nc1ccc2c(c1)OCO2 | > 4 mM (inactive) |
| Nc1ncc2[nH]cnc2n1 | > 4 mM (inactive) |
| O=C(O)C1CSC(c2ccccc2)N1 (centres undefined) | > 4 mM (inactive) |
| CC(=O)Nc1ccc(-c2cn3ccsc3n2)cc1 | > 4 mM (inactive) |
| CC(=O)O[C@H]1C[C@@H](OC(C)=O)C(C)(C)C2CC(=O)[C@]3(C)C(CC[C@@]4(C)[C@H](c5ccoc5)OC(=O)[C@H]5O[C@]543)[C@]21C (some centres undefined) | > 4 mM (inactive) |
| CC(C)(C)c1cc(CN)c(C(=O)O)o1 | > 4 mM (inactive) |
| Cc1cc(N)no1 | > 4 mM (inactive) |
| CCOC(=O)c1c(C)nc2c(C#N)cnn2c1C | > 4 mM (inactive) |
| Cc1nnc(SCC(=O)NC2CCCC2)[nH]c1=O | > 4 mM (inactive) |
| NC(N)=Nc1nc2ccccc2o1 | > 4 mM (inactive) |
| CC1CCN(C(=O)c2ccc(NS(C)(=O)=O)cc2)CC1 | > 4 mM (inactive) |
| C#CCCCCCCCCCCCC(=O)CC(O)COC(C)=O (centres undefined) | > 4 mM (inactive) |
| CC(=O)c1ccc(-n2ccnc2)cc1 | > 4 mM (inactive) |
| O=C(O)CCN1CCOCC1 | > 4 mM (inactive) |

| Compound | Kd |
| --- | --- |
| COc1ccc2c(c1)OC1(O)COc3cc(OC)c(OC)cc3C1=C2 (centres undefined) | > 4 mM (inactive) |
| O=C(O)C1=C[C@@H](O)[C@@H](O)[C@H](O)C1 | > 4 mM (inactive) |
| CCC(=O)NC(=S)Nc1ccc(C(N)=O)cc1 | > 4 mM (inactive) |
| CC(=O)O[C@H]1CCC2(C)C3=C(CCC2C1(C)C)[C@]1(C)CCC(C(C)CCC=C(C)C)[C@@]1(C)CC3 (some centres undefined) | > 4 mM (inactive) |
| Nc1nc(-c2ccccc2)cc(=O)[nH]1 | > 4 mM (inactive) |
| C#CCCCCCCCCCCCc1ccco1 | > 4 mM (inactive) |
| COc1c(-c2ccccc2)oc2c(OC)cccc2c1=O | > 4 mM (inactive) |
| C/C(=C\CO)CC[C@H](C)CCC[C@H](C)CCCC(C)C | > 4 mM (inactive) |
| Cc1nc2c(n1O)CCc1c-2no[n+]1[O-] | > 4 mM (inactive) |
| NCc1cc2ccccc2s1 | > 4 mM (inactive) |
| CC(C)/C(O)=C1/C(=O)O[C@@H](c2ccoc2)[C@]2(C)C(O)[C@@H](O)[C@@]34OC5(C)OC67CC(C)(C(O)[C@]6(O)[C@@H](O)[C@]3(O5)C12)[C@H](CC(=O)O)[C@]74C (some centres undefined) | > 4 mM (inactive) |
| CCCN1CCC(N2CCC(O)CC2)CC1 | > 4 mM (inactive) |
| O=C1C(=O)N(CN2CCN(CCO)CC2)c2ccccc21 | > 4 mM (inactive) |
| C/C(N)=C/C(=O)N1CCCCC1 | > 4 mM (inactive) |
| c1ccc2c(c1)nnn2C1CCNCC1 | > 4 mM (inactive) |
| Cc1ccc(-c2nnc3sc(-c4ccncc4)nn23)cc1 | > 4 mM (inactive) |
| Cc1cc(NC(=O)c2cccc(N3C(=O)CCC3=O)c2)no1 | > 4 mM (inactive) |
| O=C(NC(=S)NCCO)c1ccccc1 | > 4 mM (inactive) |
| CC1(C)C(=O)C=C[C@@]2(C)C1=C(O)C(=O)[C@]1(C)C2CC[C@@]2(C)[C@H](c3ccoc3)C[C@H]3O[C@]321 (some centres undefined) | > 4 mM (inactive) |
| CC12CN3CC(C)(CN(C1)C3c1cccs1)C2O (centres undefined) | > 4 mM (inactive) |
| NC(=O)c1cccc2c(=O)oc3ccccc3c12 | > 4 mM (inactive) |
| O=C(O)C1CC(=O)N(CCc2ccc(Cl)cc2)C1 (centres undefined) | > 4 mM (inactive) |
| COC(=O)[C@]1(C)CC[C@]2(C)CC[C@]3(C)C4=CCc5c(cc(O)c(O)c5C)[C@]4(C)CC[C@@]3(C)C2C1 (some centres undefined) | > 4 mM (inactive) |
| NC(=O)CSc1ccc(Br)cc1 | > 4 mM (inactive) |

| Compound | Kd |
| --- | --- |
| c1ccc(Cc2nnc3sc(-c4cccnc4)nn23)cc1 | > 4 mM (inactive) |
| CCOC(=O)Cn1cnc2sc3c(c2c1=O)CCC3 | > 4 mM (inactive) |
| CC(=O)Nc1ccc(NC(=O)c2ccncc2)cc1 | > 4 mM (inactive) |
| OCCN1CCN(C(=S)c2ccc(Cl)cc2)CC1 | > 4 mM (inactive) |
| CN(C)c1n[nH]c(=O)[nH]c1=O | > 4 mM (inactive) |
| NCc1ccc(-c2cccs2)s1 | > 4 mM (inactive) |
| O=C1C=CC2=C3c4cc(O)c(O)cc4CC3(O)COC2=C1O (centres undefined) | > 4 mM (inactive) |
| COc1cc(C2NC(=S)NC(C)=C2C(C)=O)ccc1O (centres undefined) | > 4 mM (inactive) |
| Cn1nnc2cc(C(=O)N3CCSCC3)ccc21 | > 4 mM (inactive) |
| O=c1[nH]cc(Nc2ccccc2)c(=O)[nH]1 | > 4 mM (inactive) |
| O=C(O)CCn1c(=O)oc2ccccc21 | > 4 mM (inactive) |
| CC(=O)c1c(C)nc2ccccc2c1N | > 4 mM (inactive) |
| OCc1ccc(-c2ccccn2)s1 | > 4 mM (inactive) |
| CN(C)Cc1nc2c([nH]1)c(=O)[nH]c(=O)n2C | > 4 mM (inactive) |
| CC(C)(C)CC(=O)N1CCC(C(N)=O)CC1 | > 4 mM (inactive) |
| O=C1COc2ccccc2C(=O)N1 | > 4 mM (inactive) |
| Cc1cc(C)nc(/N=C(/N)N2CCOCC2)n1 | > 4 mM (inactive) |
| OCc1ccc2occc2c1 | > 4 mM (inactive) |
| CC(C)=CC(=O)Nc1ccc(S(N)(=O)=O)cc1 | > 4 mM (inactive) |
| Cn1c(=O)[nH]c(=O)c2nsnc21 | > 4 mM (inactive) |
| COc1c(O)cc2c(c1O)[C@H]1O[C@H](CO)[C@@H](O)[C@H](O)[C@@H]1OC2=O | > 4 mM (inactive) |
| O=C(O)c1ccc(CN2CCCCC2)o1 | > 4 mM (inactive) |
| O=C(CNC(=O)c1ccc(F)cc1)NC1=NCCS1 | > 4 mM (inactive) |
| CC1(C)C[C@@H]2C(=O)CC[C@H]3O[C@]3(C)CC[C@H]21 | > 4 mM (inactive) |

| Compound | Kd |
| --- | --- |
| COc1ccc(C2=CC(=O)C=CC2=O)cc1 | > 4 mM (inactive) |
| O=C(O)c1cc(F)cc2c1OCOC2 | > 4 mM (inactive) |
| COc1cc2cc[n+]3cc4c(OC)c(OC)ccc4cc3c2cc1OC | > 4 mM (inactive) |
| CC(=O)C1CC[C@H]2C3CC[C@H]4C[C@H](O)CC[C@]4(C)C3CC[C@]12C (some centres undefined) | > 4 mM (inactive) |
| CN(C)c1nc(N)nc(-c2nc3ccccc3s2)n1 | > 4 mM (inactive) |
| CCNS(=O)(=O)c1ccc(OC)c(C)c1 | > 4 mM (inactive) |
| N#CCSc1nnc2ccc3ccccc3n12 | > 4 mM (inactive) |
| CNC(Cc1c[nH]c2ccccc12)C(=O)O (centres undefined) | > 4 mM (inactive) |
| Cc1cc(=O)cc(C)n1NC(N)=S | > 4 mM (inactive) |
| N#CCc1nc2ccccc2s1 | > 4 mM (inactive) |
| O=C(O)c1csc(-c2cccs2)n1 | > 4 mM (inactive) |
| Cc1cc(N(CN2CCCC2=O)C(=O)c2ccccc2)no1 | > 4 mM (inactive) |
| COCC(=O)/C=C1\Sc2ccccc2N1C | > 4 mM (inactive) |
| Cc1sc2nc[nH]c(=S)c2c1C | > 4 mM (inactive) |
| Cc1nccc(-c2cccc(N)c2)n1 | > 4 mM (inactive) |
| O=C1C2CC=C(Cl)CC2C(=O)N1c1ccccc1O (centres undefined) | > 4 mM (inactive) |
| CCCn1cnc2sc(C(N)=O)c(C)c2c1=O | > 4 mM (inactive) |
| CS(C)=C1C(=O)NC(=O)N(Cc2ccc(F)cc2)C1=O | > 4 mM (inactive) |
| O=c1ccc2c([nH]1)CCCC2 | > 4 mM (inactive) |
| NC1=NC(=O)C(CC(=O)Nc2ccccc2F)S1 (centres undefined) | > 4 mM (inactive) |
| CN1CCN(c2ncnc3nc[nH]c23)CC1 | > 4 mM (inactive) |
| CCN1CCC(NC2CCCCNC2=O)CC1 (centres undefined) | > 4 mM (inactive) |
| O=C(O)CSCc1c(F)cccc1Cl | > 4 mM (inactive) |
